The results in this text go back to patent US10793520B2, “Sulfonylaminobenzamide compound and pest control agent” (Nippon Soda Co., Ltd., priority 2016, dated 2020).

For the data set, the system named is Mythimna separata. Nature of the data set: Efficacy test against Mythimna separata (treated artificial feed). The note with it: in vivo. How it is done:
Five parts of the compound of the present invention, 93.6 parts of dimethylformamide and 1.4 parts of a polyoxyethylene alkyl aryl ether were mixed together and dissolved to obtain an emulsion (1) containing 5% of the active constituent.
The mortality rate was calculated using the following equation. Mortality rate (%)=(number of dead pests/number of test pests)×100
First, 0.8 g of an artificial feed (Insecta LFS, manufactured by Nosan Corporation) and 1 μl of the emulsion (I) were mixed thoroughly, and 0.2 g of the resulting mixture was placed in each of the treatment areas of a plastic test container (volume: 1.4 ml) to complete preparation of a test feed.
Two second-instar larvae of Mythimna separata were inoculated into each treatment area, and the test container was sealed with a plastic lid. The sealed container was placed in a temperature-controlled room at 25° C., and the mortality rate and the amount of feed consumed were determined on the fifth day. The test was repeated. Further, a test performed under the same conditions, but with the exception of excluding the compound of the present invention from the emulsion (1), was used as a control.

For the compound `CC(C)C(NC(=O)c1ccc(C(F)(F)F)cc1NS(=O)(=O)C(F)(F)F)c1ccc(Cl)cc1` (racemic) [b-3], the “mortality rate against Mythimna separata, or amount of feed consumed relative to control” value is recorded as 100%, or the amount of feed consumed was 10% or less.
In the case of `O=C(Nc1cc(C(F)(F)F)cc(C(F)(F)F)c1)c1ccc(Cl)cc1NS(=O)(=O)C(F)(F)F` [a-1] it was 100%, or the amount of feed consumed was 10% or less; in that of `O=C(Nc1ccc(F)c(C(F)(F)F)c1)c1ccc(C(F)(F)F)cc1NS(=O)(=O)C(F)(F)F` [a-2], 100%, or the amount of feed consumed was 10% or less.
On to `O=C(Nc1cc(C(F)(F)F)cc(C(F)(F)F)c1)c1ccc(C(F)(F)F)cc1NS(=O)(=O)C(F)(F)F` [a-3], for which the “mortality rate against Mythimna separata, or amount of feed consumed relative to control” value was 100%, or the amount of feed consumed was 10% or less.
Under `O=C(Nc1ccc(C(F)(F)F)cc1)c1ccc(C(F)(F)F)cc1NS(=O)(=O)C(F)(F)F` [a-4] stands 100%, or the amount of feed consumed was 10% or less.
Under `O=C(Nc1ccc(C(F)(F)F)cc1Cl)c1ccc(C(F)(F)F)cc1NS(=O)(=O)C(F)(F)F` [a-7] stands 100%, or the amount of feed consumed was 10% or less; under `O=C(Nc1ccc(C(F)(F)F)cn1)c1ccc(C(F)(F)F)cc1NS(=O)(=O)C(F)(F)F` [a-8], 100%, or the amount of feed consumed was 10% or less; under `O=C(Nc1ccc(C(F)(F)F)c(Cl)c1)c1ccc(C(F)(F)F)cc1NS(=O)(=O)C(F)(F)F` [a-10], 100%, or the amount of feed consumed was 10% or less.
Take `O=C(Nc1cc(C(F)(F)F)ccc1F)c1ccc(C(F)(F)F)cc1NS(=O)(=O)C(F)(F)F` [a-11]: the “mortality rate against Mythimna separata, or amount of feed consumed relative to control” value is listed as 100%, or the amount of feed consumed was 10% or less.
In the case of `O=C(Nc1cccc(OC(F)(F)F)c1)c1ccc(C(F)(F)F)cc1NS(=O)(=O)C(F)(F)F` [a-12] it was 100%, or the amount of feed consumed was 10% or less; in that of `Cc1ccc(NC(=O)c2ccc(C(F)(F)F)cc2NS(=O)(=O)C(F)(F)F)cc1` [a-13], 100%, or the amount of feed consumed was 10% or less; in that of `O=C(Nc1ccc(Cl)cc1)c1ccc(C(F)(F)F)cc1NS(=O)(=O)C(F)(F)F` [a-14], 100%, or the amount of feed consumed was 10% or less.
In the case of `O=C(Nc1ccc(OC(F)(F)F)cc1)c1ccc(C(F)(F)F)cc1NS(=O)(=O)C(F)(F)F` [a-15] it was 100%, or the amount of feed consumed was 10% or less.
In the case of `O=C(Nc1ccc(F)c(C(F)(F)F)c1)c1cc(F)c(F)cc1NS(=O)(=O)C(F)(F)F` [a-16] it was 100%, or the amount of feed consumed was 10% or less; in that of `O=C(Nc1c(Cl)cc(C(F)(F)F)cc1Cl)c1ccc(C(F)(F)F)cc1NS(=O)(=O)C(F)(F)F` [a-18], 100%, or the amount of feed consumed was 10% or less.
For `O=C(Nc1ncc(C(C(F)(F)F)C(F)(F)F)s1)c1ccc(C(F)(F)F)cc1NS(=O)(=O)C(F)(F)F` [a-19], the “mortality rate against Mythimna separata, or amount of feed consumed relative to control” value is 100%, or the amount of feed consumed was 10% or less.
Under `Cc1cc(C(F)(C(F)(F)F)C(F)(F)F)ccc1NC(=O)c1ccc(C(F)(F)F)cc1NS(=O)(=O)C(F)(F)F` [a-20] stands 100%, or the amount of feed consumed was 10% or less; under `CN(c1cc(C(F)(F)F)ccc1C(=O)Nc1ccc(F)c(C(F)(F)F)c1)S(=O)(=O)C(F)(F)F` [a-21], 100%, or the amount of feed consumed was 10% or less.
In the case of `O=C(Nc1ccc(Cl)c(Cl)c1)c1ccc(C(F)(F)F)cc1NS(=O)(=O)C(F)(F)F` [a-22] it was 100%, or the amount of feed consumed was 10% or less; in that of `O=C(Nc1ncc(C(F)(F)F)cc1Cl)c1ccc(C(F)(F)F)cc1NS(=O)(=O)C(F)(F)F` [a-23], 100%, or the amount of feed consumed was 10% or less; in that of `O=C(Nc1ccc(OC(F)(F)F)cc1)c1ccc(OC(F)(F)F)cc1NS(=O)(=O)C(F)(F)F` [a-24], 100%, or the amount of feed consumed was 10% or less.
In the case of `O=C(Nc1ccc(S(F)(F)(F)(F)F)cc1)c1ccc(C(F)(F)F)cc1NS(=O)(=O)C(F)(F)F` [a-28] it was 100%, or the amount of feed consumed was 10% or less.
`O=C(Nc1ccc(OC(F)(F)F)cc1)c1ccc(Br)cc1NS(=O)(=O)C(F)(F)F` [a-29]: the “mortality rate against Mythimna separata, or amount of feed consumed relative to control” value was 100%, or the amount of feed consumed was 10% or less.
In the case of `O=C(Nc1ccc(OC(F)(F)F)cc1)c1ccc(C(F)(F)F)cc1NS(=O)(=O)CC(F)(F)F` [a-30], the “mortality rate against Mythimna separata, or amount of feed consumed relative to control” value is recorded as 100%, or the amount of feed consumed was 10% or less.
As to `O=C(Nc1ccc(OC(F)(F)F)cc1)c1ccc(-n2cncn2)cc1NS(=O)(=O)C(F)(F)F` [a-31], the “mortality rate against Mythimna separata, or amount of feed consumed relative to control” value is 100%, or the amount of feed consumed was 10% or less.
In the case of `O=C(Nc1ccc(OC(F)(F)F)cc1)c1ccc(-c2ccc(Cl)nc2)cc1NS(=O)(=O)C(F)(F)F` [a-32] it was 100%, or the amount of feed consumed was 10% or less; in that of `O=C(Nc1ccc(OC(F)(F)F)cc1)c1ccc(C(F)(F)F)cc1NS(=O)(=O)C(F)F` [a-33], 100%, or the amount of feed consumed was 10% or less; in that of `O=C(Nc1ccc(OC(F)(F)F)cc1)c1ccc(-c2ccc(C(F)(F)F)nc2)cc1NS(=O)(=O)C(F)(F)F` [a-34], 100%, or the amount of feed consumed was 10% or less.
In the case of `O=C(Nc1ccc(OC(F)(F)F)cc1)c1ccc(-c2ccc(C(F)(F)F)cc2)cc1NS(=O)(=O)C(F)(F)F` [a-35] it was 100%, or the amount of feed consumed was 10% or less.
Under `N#Cc1ccc(C(=O)Nc2ccc(C(F)(F)F)cc2)c(NS(=O)(=O)C(F)(F)F)c1` [a-36] stands 100%, or the amount of feed consumed was 10% or less.
Turning to `N#Cc1ccc(NC(=O)c2ccc(C(F)(F)F)cc2NS(=O)(=O)C(F)(F)F)cc1C(F)(F)F` [a-37], the “mortality rate against Mythimna separata, or amount of feed consumed relative to control” value was 100%, or the amount of feed consumed was 10% or less.
Under `N#Cc1ccc(C(=O)Nc2ccc(C(F)(F)F)cc2)c(NS(=O)(=O)CC(F)(F)F)c1` [a-38] stands 100%, or the amount of feed consumed was 10% or less; under `N#Cc1ccc(NC(=O)c2ccc(C(F)(F)F)cc2NS(=O)(=O)C(F)(F)F)cc1` [a-39], 100%, or the amount of feed consumed was 10% or less.
In the case of `N#Cc1ccc(NC(=O)c2ccc(C#N)cc2NS(=O)(=O)C(F)(F)F)cc1` [a-40] it was 100%, or the amount of feed consumed was 10% or less; in that of `O=C(Nc1ccc(F)c(C(F)(F)F)c1)c1ccc(Cl)cc1NS(=O)(=O)C(F)(F)F` [a-41], 100%, or the amount of feed consumed was 10% or less; in that of `O=C(Nc1ccc(OC(F)(F)F)cc1)c1ccc(-c2ccc(C(F)(F)F)cc2Cl)cc1NS(=O)(=O)C(F)(F)F` [a-42], 100%, or the amount of feed consumed was 10% or less.
Under `COC(=O)c1cc(Br)ccc1NC(=O)c1ccc(C(F)(F)F)cc1NS(=O)(=O)C(F)(F)F` [a-49] stands 100%, or the amount of feed consumed was 10% or less.
In the case of `O=C(Nc1ccc([N+](=O)[O-])cc1)c1ccc(C(F)(F)F)cc1NS(=O)(=O)C(F)(F)F` [a-50], the “mortality rate against Mythimna separata, or amount of feed consumed relative to control” value was 100%, or the amount of feed consumed was 10% or less.
For `N#Cc1cc(Cl)ccc1NC(=O)c1ccc(C(F)(F)F)cc1NS(=O)(=O)C(F)(F)F` [a-51], the “mortality rate against Mythimna separata, or amount of feed consumed relative to control” value is 100%, or the amount of feed consumed was 10% or less.
Under `N#Cc1ccc(NC(=O)c2ccc(C(F)(F)F)cc2NS(=O)(=O)C(F)(F)F)c(F)c1` [a-53] stands 100%, or the amount of feed consumed was 10% or less; under `O=C(Nc1ccc(C(F)(F)F)cc1F)c1ccc(C(F)(F)F)cc1NS(=O)(=O)C(F)(F)F` [a-54], 100%, or the amount of feed consumed was 10% or less; under `O=C(Nc1ccc(Cl)cc1C(F)(F)F)c1ccc(C(F)(F)F)cc1NS(=O)(=O)C(F)(F)F` [a-55], 100%, or the amount of feed consumed was 10% or less.
As to `O=C(Nc1ccnc(OCC(F)(F)F)c1)c1ccc(C(F)(F)F)cc1NS(=O)(=O)C(F)(F)F` [a-56], the “mortality rate against Mythimna separata, or amount of feed consumed relative to control” value is given as 100%, or the amount of feed consumed was 10% or less.
Under `COC(=O)c1cc(F)ccc1NC(=O)c1ccc(C(F)(F)F)cc1NS(=O)(=O)C(F)(F)F` [a-57] stands 100%, or the amount of feed consumed was 10% or less.
